Test results taken from patent publication US4935438A, “Dopamine-β-hydroxylase inhibitors” (SmithKline Beckman Corporation, priority 1987, dated 1990).

What was measured:
DBH = molecular target: T1, DBH (Homo sapiens, UniProt P09172); details: cited from earlier work; for mode of DBH inhibition: literature; for DBH inhibition: literature report
T1 sequence (P09172 1-617): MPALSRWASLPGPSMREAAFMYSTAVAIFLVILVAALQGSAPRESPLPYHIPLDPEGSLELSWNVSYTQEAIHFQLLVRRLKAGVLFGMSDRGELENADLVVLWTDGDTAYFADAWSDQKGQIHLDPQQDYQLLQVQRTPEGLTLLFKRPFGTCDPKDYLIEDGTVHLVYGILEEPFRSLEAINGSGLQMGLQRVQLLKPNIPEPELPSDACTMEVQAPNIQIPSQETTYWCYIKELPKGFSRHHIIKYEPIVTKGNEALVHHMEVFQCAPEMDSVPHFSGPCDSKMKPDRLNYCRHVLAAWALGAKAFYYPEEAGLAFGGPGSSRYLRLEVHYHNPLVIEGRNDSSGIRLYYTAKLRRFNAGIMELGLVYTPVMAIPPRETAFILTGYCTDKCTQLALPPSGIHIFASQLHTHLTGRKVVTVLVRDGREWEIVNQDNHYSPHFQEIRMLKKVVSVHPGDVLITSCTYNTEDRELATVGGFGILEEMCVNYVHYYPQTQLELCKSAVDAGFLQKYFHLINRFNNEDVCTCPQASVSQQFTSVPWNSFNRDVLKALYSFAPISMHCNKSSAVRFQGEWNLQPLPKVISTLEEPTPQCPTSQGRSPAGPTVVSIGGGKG

[1] = tested on: Spontaneously hypertensive rats; test: mean arterial blood pressure in spontaneously hypertensive rats; type: in vivo, rat; details: 50 mg/kg intraperitoneally, vs vehicle treated controls
Experimental: Spontaneously hypertensive rats were treated with 2-(carboxymethylthio)-1-(3,5-difluorobenzyl)imidazole at a dose of 50 mg/kg intraperitoneally, and mean arterial blood pressure was monitored for four hours using an indwelling cannula in the femoral artery. […] The maximal blood pressure reduction was approximately 43 mmHg.

For `NNCc1ccccc1` [benzylhydrazine], the “mode of DBH inhibition” value (DBH) is given as “apparently act as competitive inhibitors”.
For `O=C(O)c1ccc(CCC(Br)CBr)cn1` (stereo not drawn) [5-(3,4-dibromobutyl)picolinic acid], the DBH inhibition (DBH) is listed as “DBH inhibitors”.
For `O=C(O)CSc1nccn1Cc1cc(F)cc(F)c1` [2-(Carboxymethylthio)-1-(3,5-difluorobenzyl)imidazole], the “maximal blood pressure reduction” value ([1]; monitored for four hours) was “approximately 43 mmHg”, the “time blood pressure remained significantly reduced” value ([1]; monitored for four hours) was 4 h and the “time to significant blood pressure reductions following treatment” value [1] was at most 30 min.
In the case of `NOCc1ccccc1` [Benzyloxyamine], the “mode of DBH inhibition” value (DBH) is given as “apparently act as competitive inhibitors”.
In the case of `O=C(O)c1ccc(CCCCCl)cn1` [5-(4-chlorobutyl) picolinic acid], the DBH inhibition (DBH) is listed as “inhibit DBH”.
For `CN(C)C(=S)SCc1ccc(C(=O)O)nc1` [5-(dimethyldithiocarbamoylmethyl)picolinic acid], the DBH inhibition (DBH) is given as “DBH inhibitors”.
In the case of `CCCCc1ccc(C(N)=O)nc1` [Bupicomide, 5(n-butyl)picolinamine], the DBH inhibition (DBH) is listed as “DBH inhibitor”.
